Structures are written as SMILES. “Also recorded” adds a separate entry of the source.

This is an account of results in patent US20250281439A1, “USE OF L-ASPARTIC ACID BETA-HYDROXAMATE (L-ABH) IN PREPARATION OF DRUG FOR DIABETIC RETINOPATHY (DR) OR RETINOPATHY OF PREMATURITY (ROP)” (Wenzhou Medical University, priority 2024, published 2025).

Data set [1] relates to db/db mice. Kind of data set: Visual electrophysiological examination (dark and light adaptation) after 18 weeks of gavage. The format is in vivo. As to conditions: gavage 20 mg/kg/day, 1 time per day, vs db/db+water. As for the experimental part:
(§1) The 3-month-old db/db mice were randomly divided into two groups and subjected to intragastric gavage experiments: • group 1: gavage of water (denoted as db/db+water, 0.06 mL/10 g, 7 mice in total); • group 2: gavage of the L-ABH (denoted as db/db+L-ABH, 20 mg/kg/day, 10 mice in total).
(§2) Each group was gavaged 1 time per day according to the dosage for 18 weeks.
(§3) The 3-month-old wild-type mice were gavaged in the same manner as the group 1 (denoted as WT+water, 0.06 mL/10 g, 6 mice in total).
(1) After the gavage, visual electrophysiological examinations were conducted on the mice in each group.
In FIGS. 2A-2H, (dark adapted 0.01, dark adapted 3.0, dark adapted 10.0 and dark adapted 3.0 oscillatory potentials) show 4 tests under visual electrophysiological dark adaptation. […] In FIGS. 3A-3D, (light adapted 3.0, and light adapted 30 Hz flicker) show 2 tests after visual electrophysiological light adaptation.

Data set [2] concerns db/db mice. As to conditions: previous studies, cited from earlier work.
For data set [3], the system named is db/db mice. The data set can be described thus: OCT experiment (circular and linear scan; RNFL and total retinal thickness). The format is in vivo. As to conditions: gavage 20 mg/kg/day, 18 weeks, vs db/db+water. On the procedure:
as §1, §2, §3
(2) After the gavage, an OCT experiment was conducted.
After the mice were anesthetized, tropicamide eye drops were used to dilate pupils, and after the mice entered deep anesthesia, ofloxacin was used to cover an ocular surface. The mice were placed on a mouse holder, their body position and the position knob were adjusted such that the lens was directly facing a center of mouse pupil. The position was fine-tuned from far to near such that an optic disc was located in a center of fundus image, and a focus was adjusted to make the image clear. A linear scan was conducted, where a linear scan position was moved to the vicinity of the optic disc, parameters and position were fine-tuned such that an OCT image passed through the optic disc and the optic disc was located in the middle, thus obtaining a cross-section of the retina from a temporal side to a nasal side. […]

For data set [4], the system named is neonatal mice, hypoxia-induced retinopathy model. The data set can be described thus: OIR experiment, hypoxia-induced retinopathy model (isolectin staining, area of retinal angiogenesis). As to conditions: intraperitoneal 7 mg/kg/day, 1 time a day from day 12 after birth, 5 days, vs OIR+Saline. The format is in vivo. As for the experimental part: In this example, the effect of L-ABH was verified in a hypoxia-induced model. The hypoxia-induced retinopathy model could be used as a model of ROP and a late-stage model of DR. OIR experiment: neonatal mice on the 7th day after birth and mother mice were randomly divided into 3 groups. Two groups of the neonatal mice and the mother mice were placed in an OIR oxygen chamber. The neonatal mice in group 1 were intraperitoneally injected with L-ABH (7 mg/kg/day) 1 time a day from the 12th day after birth for 5 consecutive days, recorded as OIR+L-ABH (ip), with a total of 5 mice. While the neonatal mice in group 2 were intraperitoneally injected with an equal amount of saline every day from the 12th day, recorded as OIR+Saline, with a total of 5 mice. After 5 day of hyperoxia, hypoxia-induced models were established in the group 1 and the group 2. The mice in group 3 were fed normally and intraperitoneally injected with an equal volume of saline every day, recorded as WT, with a total of 5 mice. After 5 day of hyperoxia, the neonatal and the mother mice were taken out from the oxygen chamber. The neonatal and the mother mice in the 3 groups were raised normally for 5 days, then the neonatal mice were sacrificed, subjected to stretched preparation and stained with isolectin, and then analyzed for the area of retinal angiogenesis. […]

For data set [5] the following is noted: oral 20 mg/kg/d for three months (patent ZL 202110755406.0); 20 mg/kg/day; cited from earlier work.
The nature of data set [6]: Toxicity and tolerability of L-ABH on long-term oral administration. As to conditions: no test described. The data set is classed as in vivo. From the text: L-aspartic acid β-hydroxamate (L-ABH) is a reversible serine racemase (SR) inhibitor. […] However, there is no clear report on whether the L-ABH could be used for retinal neuroprotection as well as prevention and treatment of retinopathy.

Data set [7] concerns db/db mice. Kind of data set: Retinal digest preparation, PAS staining (endothelial cells, pericytes, acellular capillaries). As to conditions: gavage 20 mg/kg/day, 18 weeks, vs db/db+water. The format is in vivo. As for the experimental part:
as §1, §2, §3
(4) After the gavage, the retinal digest preparation stretched preparation-PAS staining experiment was conducted.
After the mice were euthanized, eyeballs of the mice were removed and fixated with 4% PFA for 48 h, the retinas of the mice were separated and rinsed in ddH2O on a shaker at room temperature overnight, a fixative was removed, and the retinas were cut in half. The retinas were placed in 3% trypsin (prepared in 0.2 M Tris buffer, pH=7.4) and digested at 37° C. for 1 h. […] The nuclei were washed with running water, dehydrated routinely, transparentized with xylene, sealed with neutral gum, and then 6 to 8 fields of view were randomly selected for counting and observation under a microscope, and the number of pericytes and endothelial cells was calculated.

Data set [8] has as its system db/db mice. Kind of data set: Retinal Brn3a immunofluorescence (RGC counting). The format is in vivo. As to conditions: gavage 20 mg/kg/day, 18 weeks, vs db/db+water. As for the experimental part:
as §1, §2, §3
(3) After the gavage, retinal Brn3a immunofluorescence experiment was conducted.
After the mice were euthanized, periocular tissue of the mice was cut open, their eyeball of the mice was cut out and placed in a 5 mL centrifuge tube containing 4% PFA to allow fixation for 24 h, and the retinas were separated and cut into 4 petal shapes. The retinas were washed with PBS, permeabilized for 45 min, and blocked for 2 h. After removing a blocking solution, a Brn3a antibody was diluted (1:100) with PBS buffer containing 1% BSA, incubated overnight at 4° C., and then washed with the PBS. […] LSM 880 confocal laser microscope was used to take a full retinal mosaic, and then fluorescent images of the inner, middle, and outer 3 areas were intercepted on the 4 petals of the retina, that is, 12 areas of one retina were intercepted to allow fluorescence counting statistics. […]

As to `N[C@@H](CC(=O)NO)C(=O)O` [L-ABH, L-aspartic acid β-hydroxamate], the “functions of bipolar cells and amacrine cells in the retina (a-, b-wave, oscillatory potential, N1-P1 amplitudes)” value in the data set on db/db mice [1] is “significantly improve the functions of bipolar cells and amacrine cells”. The random blood glucose result in the data set with db/db mice [2] (animal model of type II diabetes) is recorded as “reduce random blood glucose”. In the data set with db/db mice [2], the “oral glucose tolerance test (OGTT)” value was “significantly improve oral glucose tolerance test (OGTT)” and the “sensitivity of insulin tolerance test (ITT)” value is listed as “increase sensitivity of insulin tolerance test (ITT)”. The “degeneration of nerve fiber layer and medial nasal retina (RNFL thickness, total retinal thickness by OCT)” value with db/db mice [3] is “protect the degeneration of a nerve fiber layer and a medial nasal retina”. Also, the “hypoxia-induced retinal angiogenesis (neovascular area, avascular area)” value in data set [4] is reported as “significantly reduce the hypoxia-induced retinal angiogenesis”. Further, the hepatotoxicity and nephrotoxicity entry in data set [5] is “not hepatotoxic or nephrotoxic; also recorded: without hepatotoxicity and nephrotoxicity”. In addition, in data set [6] (long-term use), the “nausea, vomiting, diarrhea, lactic acidosis” value is given as “does not cause nausea, vomiting, diarrhea, or lactic acidosis”. Moreover, the “irritating effect on gastrointestinal tract” value in data set [6] is “no irritating effect on gastrointestinal tract”. Besides, the “microvascular lesions (ratio of endothelial cells to pericytes, amount of acellular capillaries)” value in the data set on db/db mice [7] is on record as “significantly reduce the microvascular lesions”. Besides, the “RGCs (Brn3a fluorescence counting) in inner, middle and outer retina” value with db/db mice [8] is “significantly protect the RGCs in the middle and outer retina”.
